Laboratory results from US6770644B1, “Hydroxamic acid derivatives, process for the production thereof and drug containing the same as the active ingredient” (Ono Pharmaceuticals Co., Ltd., priority 1999, dated 2004).

Legend:
[1] = tested on: IL-6 production from A549 cells; assay: Inhibitory activity on IL-6 production from A549 cells (TNF-α stimulated, ELISA); type: cell-based; details: A549 cells (human lung epithelial cell line), TNF-α stimulation, 24 hours, read-out: 50% inhibitory concentration (IC50) on IL-6 production
Procedure: (1) The Measurement of an Inhibitory Activity on IL-6 Production from A549 Cells
1.5×10^4 of A549 cells (human lung epithelial cell line) were suspended in 100 μL of Dulbecco's Modified Eagle Medium (DMEM) containing 0.5% fetal bovine serum (abbreviated as FBS) and incubated for a day and night in 96 well-microplate. 20 μL of the test compound dissolved in dimethylsulfoxide (DMSO) at various concentrations and 80 μL of tumor necrosis factor-α (TNF-α (Genzyme Co., cat. No. TNF-H)) dissolved in serum-free DMEM at the concentration of 12.5 ng/mL were added thereto. After the incubation for 24 hours, the supernatant (100 μL) was collected to measure the amount of IL-6 being produced using enzyme linked immuno […] assay (ELISA) (R&D Systems Co., cat. No. D6050). Then the inhibitory activity of the test compound was calculated and the 50% inhibitory concentration (IC50) was determined.

[2] = tested on: IL-6 production from human synovial cells; assay: Inhibitory activity on IL-6 production from human synovial cells (IL-1β stimulated, ELISA); type: cell-based; details: Synovial cell, synovial cells from rheumatoid arthritis patients, IL-1β stimulation, 24 hours, read-out: 50% inhibitory concentration (IC50) on IL-6 production
Procedure: (2) The Measurement of an Inhibitory Activity on IL-6 Production from Human Synovial Cells
3.0×10^3 of synovial cells from rheumatoid arthritis patients were suspended in 200 μL of DMEM containing 10% FBS and incubated for a day and night in 96 well-microplate, followed by the incubation for 5 hours in serum-free DMEM. 20 μL of the test compound dissolved in DMSO at various concentrations and 80 μL of interleukin-1β (IL-1β (Genzyme Co., cat. No. 80-3688-01)) dissolved in DMEM containing 2.5% fetal bovine serum at the concentration of 5 ng/mL were added thereto. After the incubation for 24 hours, the supernatant (100 μL) was collected to measure the amount of IL-6 being produced using ELISA (R&D Systems Co., cat. No. D6050). Then the inhibitory activity of the test compound was calculated and the 50% inhibitory concentration (IC50) was determined.

Which IC50 [1] does the source give for `O=C(CCCC[C@@H](O)c1ccc(-c2ccc(Cl)cc2)cc1)NO` [example 3] here?
The IC50 was 52 nM.

What about the IC50 [2] of the same compound?
The IC50 was 41 nM.
